According to US9187424B1, “Aryl dihydropyridinones and piperidinone MGAT2 inhibitors” (Bristol-Myers Squibb Company, priority 2011, dated 2015):

Target: Human MGAT-2 (Homo sapiens (Human), UniProt Q3SYC2)
Assay: MGAT LCMS Assay (human MGAT-2);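 note: diolein product quantified by LC/MS with positive APCI, expressed as peak area ratio versus an internal standard, and this ratio used to derive IC50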
Type: biochemical
Conditions: human MGAT-2 membranes expressed in Sf9 cells; 2-oleoylglycerol and oleoyl-Coenzyme A; read-out: h-MGAT2 IC50 (nM) LCMS Assay

Sequence of Human MGAT-2 (Q3SYC2 whole entry): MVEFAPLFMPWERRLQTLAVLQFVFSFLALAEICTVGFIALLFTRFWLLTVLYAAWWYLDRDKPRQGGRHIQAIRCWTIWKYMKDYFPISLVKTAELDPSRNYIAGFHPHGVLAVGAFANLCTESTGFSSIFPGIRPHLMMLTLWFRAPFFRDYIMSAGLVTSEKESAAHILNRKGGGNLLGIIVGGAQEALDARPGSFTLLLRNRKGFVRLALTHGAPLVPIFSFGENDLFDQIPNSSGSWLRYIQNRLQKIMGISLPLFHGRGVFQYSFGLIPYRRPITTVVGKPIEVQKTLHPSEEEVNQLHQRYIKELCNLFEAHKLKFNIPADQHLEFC

SMILES: COc1ccc(C2=C[C@](c3ccc(OCCCC(F)(F)F)cc3)(C(F)(F)F)NC(=O)C2(F)C#N)cc1 (single isomer, unassigned) [Example 15-2, 3-Fluoro-4-(4-methoxyphenyl)-2-oxo-6-(4-(4,4,4-trifluorobutoxyl)phenyl)-6-(trifluoromethyl)-1,2,3,6-tetrahydropyridine-3-carbonitrile]
- IC50: 431 nM

SMILES: COc1ccc(C2=C[C@@](c3ccc(OCCCC(F)(F)F)cc3)(C(F)(F)F)NC(=O)C2(F)C#N)cc1 (stereo in doubt) [Example 15-3, 3-Fluoro-4-(4-methoxyphenyl)-2-oxo-6-(4-(4,4,4-trifluorobutoxyl)phenyl)-6-(trifluoromethyl)-1,2,3,6-tetrahydropyridine-3-carbonitrile]
- IC50: 756 nM

SMILES: COc1ccc(C2=C[C@@](c3ccc(OCCCC(F)(F)F)cc3)(C(F)(F)F)NC(=O)C2(F)C#N)cc1 (stereo in doubt) [Example 15-4, 3-Fluoro-4-(4-methoxyphenyl)-2-oxo-6-(4-(4,4,4-trifluorobutoxyl)phenyl)-6-(trifluoromethyl)-1,2,3,6-tetrahydropyridine-3-carbonitrile]
- IC50: 2050 nM

SMILES: CCn1nnc(C2=C(c3ccc(C)cc3)CC(c3ccc(OCCCC(F)(F)F)cc3)(C(F)(F)F)NC2=O)n1 (centres unmarked) [Example 9, 3-(2-Ethyl-2H-tetrazol-5-yl)-4-p-tolyl-6-(4-(4,4,4-trifluorobutoxyl)phenyl)-6-(trifluoromethyl)-5,6-dihydropyridin-2(1H)-one]
- IC50: 121 nM

SMILES: Cc1ccc(C2=C(c3nn[nH]n3)C(=O)NC(c3cnn(CCCCC(F)(F)F)c3)(C(F)(F)F)C2)cc1 (centres unmarked) [Example 12, 3-(2H-Tetrazol-5-yl)-4-p-tolyl-6-(trifluoromethyl)-6-(1-(5,5,5-trifluoropentyl)-1H-pyrazol-4-yl)-5,6-dihydropyridin-2(1H)-one]
- IC50: 374 nM

SMILES: COc1ccc(C2=C(C#N)C(=O)NC(c3ccc(OCCCC(F)(F)F)cc3)(C(F)(F)F)C23CC3)cc1 (centres unmarked) [Example 14, 8-(4-Methoxyphenyl)-6-oxo-4-(4-(4,4,4-trifluorobutoxyl)phenyl)-4-(trifluoro-methyl)-5-azaspiro[2.5]oct-7-ene-7-carbonitrile]
- IC50: 2050 nM

SMILES: Cc1ccc(C2=C(C(=O)Nc3cn(C)cn3)C(=O)NC(c3ccc(OCCCC(F)(F)F)cc3)(C(F)(F)F)C2)cc1 (centres unmarked) [Example 87]
- IC50: 1220 nM

SMILES: CCOc1ccc(C2=C(c3nn[nH]n3)C(=O)NC(c3ccc(OCCCC(F)(F)F)cc3)(C(F)(F)F)C2)cc1 (centres unmarked) [Example 92]
- IC50: 136 nM

SMILES: Cc1cccc(C2=C(c3nn[nH]n3)C(=O)NC(c3ccc(OCCCC(F)(F)F)cc3)(C(F)(F)F)C2)c1 (centres unmarked) [Example 96]
- IC50: 1430 nM

SMILES: O=C1NC(c2ccc(OCCCC(F)(F)F)cc2)(C(F)(F)F)CC(c2ccccc2)=C1c1nn[nH]n1 (centres unmarked) [Example 97]
- IC50: 1200 nM

SMILES: O=C1NC(c2ccc(OCCCC(F)(F)F)cc2)(C(F)(F)F)CC(c2cccc(Cl)c2)=C1c1nn[nH]n1 (centres unmarked) [Example 99]
- IC50: 795 nM

SMILES: COc1cccc(C2=C(c3nn[nH]n3)C(=O)NC(c3ccc(OCCCC(F)(F)F)cc3)(C(F)(F)F)C2)c1 (centres unmarked) [Example 100]
- IC50: 1580 nM

SMILES: COc1ccc(NC(=O)C2=C(c3ccc(C)cc3)CC(C)(C(=O)NCCCC(F)(F)F)NC2=O)cc1 (centres unmarked) [Example 102, N^5-(4-Methoxyphenyl)-2-methyl-6-oxo-4-p-tolyl-N^2-(4,4,4-trifluorobutyl)-1,2,3,6-tetrahydropyridine-2,5-dicarboxamide]
- IC50: 1090 nM

SMILES: Cc1ccc(C2=C(C(=O)Nc3ccc(C#N)cc3)C(=O)NC(c3ccc(OCCCC(F)(F)F)cc3)(C(F)(F)F)C2(F)F)cc1 (centres unmarked) [Example 103, N-(4-Cyanophenyl)-5,5-difluoro-2-oxo-4-p-tolyl-6-(4-(4,4,4-trifluorobutoxyl)phenyl)-6-(trifluoromethyl)-1,2,5,6-tetrahydropyridine-3-carboxamide]
- IC50: 645 nM

SMILES: Cc1ccc(C2=C(N)C(=O)N[C@@](c3ccc(OCCCC(F)(F)F)cc3)(C(F)(F)F)C2)cc1 [Example 104, (S)-3-Amino-4-p-tolyl-6-(4-(4,4,4-trifluorobutoxy)phenyl)-6-(trifluoromethyl)-5,6-dihydropyridin-2(1H)-one]
- IC50: 103 nM

SMILES: Cc1ccc(C2=C(Oc3ccccc3)C(=O)N[C@@](c3ccc(OCCCC(F)(F)F)cc3)(C(F)(F)F)C2)cc1 [Example 106, (S)-3-Phenoxy-4-p-tolyl-6-(4-(4,4,4-trifluorobutoxy)phenyl)-6-(trifluoromethyl)-5,6-dihydropyridin-2(1H)-one]
- IC50: 552 nM

SMILES: CCCCOc1ccc(C2(C)CC(c3ccc(C)cc3)=C(C#N)C(=O)N2)cc1 (centres unmarked) [Example 107, 6-(4-Butoxyphenyl)-6-methyl-2-oxo-4-p-tolyl-1,2,5,6-tetrahydropyridine-3-carbonitrile]
- IC50: 93 nM

SMILES: CCCCCCc1cnc(C2(C)CC(c3ccc(C)cc3)=C(C#N)C(=O)N2)o1 (centres unmarked) [Example 108, 6-(5-Hexyloxazol-2-yl)-6-methyl-2-oxo-4-p-tolyl-1,2,5,6-tetrahydropyridine-3-carbonitrile]
- IC50: 189 nM

SMILES: CCCCCCCn1ccc(C2(C)CC(c3ccc(C)cc3)=C(C#N)C(=O)N2)n1 (centres unmarked) [Example 109, 6-(1-Heptyl-1H-pyrazol-3-yl)-6-methyl-2-oxo-4-p-tolyl-1,2,5,6-tetrahydropyridine-3-carbonitrile]
- IC50: 39 nM

SMILES: Cc1ccc(C2=C(n3ccnc3)C(=O)NC(c3ccc(OCCCC(F)(F)F)cc3)(C(F)(F)F)C2)cc1 (centres unmarked) [Example 114]
- IC50: 704 nM

SMILES: Cc1ccc(C2=C(C(O)Nc3ccccc3)C(=O)NC(c3ccc(OCCCC(F)(F)F)cc3)(C(F)(F)F)C2)cc1 (centres unmarked) [Example 115]
- IC50: 40 nM

SMILES: Cc1ccc(C2=C(C(=O)Nc3nn[nH]n3)C(=O)NC(c3ccc(OCCC(F)(F)F)cc3)(C(F)(F)F)C2)cc1 (centres unmarked) [Example 125]
- IC50: 282 nM

SMILES: Cc1ccc(C2=C(C(=O)Nc3cccc(C)c3)C(=O)NC(c3ccc(OCCC(F)(F)F)cc3)(C(F)(F)F)C2)cc1 (centres unmarked) [Example 128]
- IC50: 328 nM

SMILES: Cc1ccc(NC(=O)C2=C(c3ccc(C)cc3)CC(c3ccc(OCCC(F)(F)F)cc3)(C(F)(F)F)NC2=O)cc1 (centres unmarked) [Example 129]
- IC50: 222 nM

SMILES: Cc1ccc(C2=C(C(=O)Nc3cc(C)[nH]n3)C(=O)NC(c3ccc(OCCC(F)(F)F)cc3)(C(F)(F)F)C2)cc1 (centres unmarked) [Example 131]
- IC50: 1050 nM

SMILES: Cc1ccc(C2=C(C(=O)Nn3cnc([N+](=O)[O-])n3)C(=O)NC(c3ccc(OCCC(F)(F)F)cc3)(C(F)(F)F)C2)cc1 (centres unmarked) [Example 132]
- IC50: 163 nM

SMILES: Cc1ccc(C2=C(C(=O)Nc3ccc(-c4nn[nH]n4)cc3)C(=O)NC(c3ccc(OCCC(F)(F)F)cc3)(C(F)(F)F)C2(F)F)cc1 (centres unmarked) [Example 134]
- IC50: 168 nM

SMILES: Cc1ccc(NC(=O)C2=C(c3ccc(C)cc3)C(F)(F)C(c3ccc(OCCC(F)(F)F)cc3)(C(F)(F)F)NC2=O)cc1 (centres unmarked) [Example 135]
- IC50: 778 nM

SMILES: Cc1ccc(C2=C(C(=O)Nc3nnc(C(F)(F)F)o3)C(=O)NC(c3ccc(OCCC(F)(F)F)cc3)(C(F)(F)F)C2)cc1 (centres unmarked) [Example 136]
- IC50: 328 nM

SMILES: Cc1ccc(C2=C(C(=O)Nc3ccccc3OC(F)(F)F)C(=O)NC(c3ccc(OCCC(F)(F)F)cc3)(C(F)(F)F)C2)cc1 (centres unmarked) [Example 137]
- IC50: 252 nM

SMILES: COc1ccc(C2(C(F)(F)F)NC(=O)C(C#N)=C(c3ccc(C)cc3)C2(F)F)cc1 (centres unmarked) [Example 138]
- IC50: 5800 nM

SMILES: COc1ccc(C2=C(c3ccc(C)cc3)C(F)(F)C(c3ccc(OCCCC(F)(F)F)cc3)(C(F)(F)F)NC2=O)cn1 (centres unmarked) [Example 140]
- IC50: 356 nM

SMILES: Cc1ccc(C2=C(C(=O)NC3CCCC3)C(=O)NC(c3ccc(OCCCC(F)(F)F)cc3)(C(F)(F)F)C2(F)F)cc1 (centres unmarked) [Example 141]
- IC50: 459 nM

SMILES: Cc1ccc(C2=C(NC(=O)c3cocn3)C(=O)NC(c3ccc(OCCCC(F)(F)F)cc3)(C(F)(F)F)C2)cc1 (centres unmarked) [Example 151]
- IC50: 5120 nM

SMILES: Cc1ccc(C2=C(NC(=O)c3cnco3)C(=O)NC(c3ccc(OCCCC(F)(F)F)cc3)(C(F)(F)F)C2)cc1 (centres unmarked) [Example 152]
- IC50: 252 nM

SMILES: Cc1ccc(C2=C(NC(=O)c3cnccn3)C(=O)NC(c3ccc(OCCCC(F)(F)F)cc3)(C(F)(F)F)C2)cc1 (centres unmarked) [Example 153]
- IC50: 247 nM

SMILES: CCCCCCNC(=O)c1ccc(C2(C(F)(F)F)CC(c3ccc(C)cc3)=C(C(=O)Nc3ccc(OC)cc3)C(=O)N2)cc1 (centres unmarked) [Example 155]
- IC50: 484 nM

SMILES: Cc1ccc(C2=C(c3nnn[nH]3)C(=O)NC(c3ccc(OCCCC(F)(F)F)cc3)(C(F)(F)F)C2)c(C)c1 (centres unmarked) [Example 156]
- IC50: 254 nM

SMILES: Cc1ccc(C2=C(n3cnnn3)C(=O)NC(c3ccc(OCCCC(F)(F)F)cc3)(C(F)(F)F)C2(F)F)cc1 (centres unmarked) [Example 159]
- IC50: 16700 nM

SMILES: Cc1ccc(C2=C(C#N)C(=O)NC(c3ccc(OCCCC(F)(F)F)cc3)(C(F)(F)F)C2(F)F)cc1 (centres unmarked) [Example 160]
- IC50: 5400 nM

SMILES: CCCCCNC(=O)c1ccc(C2(C)CC(c3ccc(C)cc3)=C(C(=O)Nc3ccc(OC)cc3)C(=O)N2)cc1 (centres unmarked) [Example 161]
- IC50: 1260 nM

SMILES: COc1ccc(C(=O)NC2=C(c3ccc(C)cc3)C(F)(F)C(c3ccc(OCCC(F)(F)F)cc3)(C(F)(F)F)NC2=O)cc1 (centres unmarked) [Example 162]
- IC50: 214 nM

SMILES: COc1ccc(C(=O)NC2=C(c3ccc(C)cc3)C(F)(F)C(c3ccc(OCCCCC(F)(F)F)cc3)(C(F)(F)F)NC2=O)cc1 (centres unmarked) [Example 164]
- IC50: 162 nM

SMILES: Cc1ccc(C2=C(NC(=O)c3ccccc3Cl)C(=O)NC(c3ccc(OCCCC(F)(F)F)cc3)(C(F)(F)F)C2)cc1 (centres unmarked) [Example 168]
- IC50: 113 nM

SMILES: Cc1ccc(C2=C(NC(=O)c3cccc(Cl)c3)C(=O)NC(c3ccc(OCCCC(F)(F)F)cc3)(C(F)(F)F)C2)cc1 (centres unmarked) [Example 169]
- IC50: 421 nM

SMILES: Cc1ccc(C2=C(NC(=O)c3ccc(F)cc3Cl)C(=O)NC(c3ccc(OCCCC(F)(F)F)cc3)(C(F)(F)F)C2)cc1 (centres unmarked) [Example 170]
- IC50: 210 nM

SMILES: COc1ccc(NC(=O)C2=C(c3ccc(C)cc3)CC(C)(C(=O)NCCCc3ccccc3)NC2=O)cc1 (centres unmarked) [Example 175]
- IC50: 264 nM

SMILES: COc1ccc(C2=C(NC(=O)c3cc(C)no3)C(=O)NC(c3ccc(OCCCC(F)(F)F)cc3)(C(F)(F)F)C2)cc1 (centres unmarked) [Example 176]
- IC50: 3 nM

SMILES: CCCCCCCCNC(=O)C1(C)CC(c2ccc(C)cc2)=C(C#N)C(=O)N1 (centres unmarked) [Example 177]
- IC50: 399 nM

SMILES: COc1ccc(NC(=O)C2=C(c3ccc(C)cc3)C(F)(F)C(c3ccc(OC)cc3)(C(F)(F)F)NC2=O)cc1 (centres unmarked) [Example 181]
- IC50: 2050 nM
